Measurements from patent EP0192611A2, “Acylated hexose derivatives and method for their preparation” (CIBA-GEIGY AG, priority 1985, dated 1986).

System: Influenza-Viren
Experiment: Own studies: prophylaxis and therapy of virus infection in mice infected with influenza viruses
Type: in vivo, Mäuse
Conditions: per se, without admixed vaccine
Source text: Aus der Französischen Patentanmeldung Nr. 74 22 909 mit der Publikationsnummer 2 292 486 sind Huramylpeptide vom Typ der Verbindung N-Acetyl-muramyl-L-alanyl-D-isoglutamin ("MDP") bekannt. Diese Verbindungen sind als immunologische Adjuvanzien beschrieben, d.h. sie können in Mischung mit Impfstoffen dazu benützt werden, den Impferfolg zu verbessern. Eigene Untersuchungen, z.B. bei mit Influenza-Viren infizierten Mäusen, haben ergeben, dass N-Acetyl-muramyl-L-alanyl-D-isoglutamin per se, d.h. ohne Beimengung von Impfstoffen, bei der Prophylaxe und Therapie von Virusinfektionen unwirksam ist. Auch ist die Verwendbarkeit strukturell einfacher Muramylpeptide und ihrer Analogen gegen Virusinfektionen bisher nicht beschrieben.

CC(=O)N[C@H]1C(O)O[C@H](CO)[C@@H](O)[C@@H]1O[C@H](C)C(=O)N[C@@H](C)C(=O)N[C@H](CCC(=O)O)C(N)=O (stereo partly drawn) [N-Acetyl-muramyl-L-alanyl-D-isoglutamin]
Wirksamkeit bei der Prophylaxe und Therapie von Virusinfektionen: unwirksam
